Like-named read-outs stand apart in the source and are kept apart here.

For assay [1], the system named is chronic constrictive injury (CCI) model (loosely ligated common sciatic nerve). The assay can be described thus: chronic constrictive injury (CCI) model of peripheral mononeuropathy. The class given is in vivo, rat. As to conditions: oral test doses of 0.3, 3 and 30 mg/kg/day (dosed four times a day). The text has this: The development of a rodent model of peripheral mononeuropathy (Pain, 33, 1988, 87-107; Exp Brain Res, 113, 1997, 200-206; and Exp Brain Res, 120, 1998, 432-438) has provided a new approach for studies of post-injury neuropathic pain. The model produces neuropathic pain syndromes in the rat by loosely ligating the common sciatic nerve and has been described as a chronic constrictive injury (CCI) model. The behavioural, morphological and autoradiographic data obtained from the rodents in this model closely represent the clinical features of post-injury neuropathic pain. […] This model has value therefore in predicting efficacy of compounds against neuropathic pain.
The identification of compounds which are useful in the treatment or prevention of neuropathic pain is the subject of the present invention. These properties may be assessed, for example, using the CCI model as described in Pain, 33, 1988, 87-107.

For assay [2] the test system is unchanged. As to conditions: cited from earlier work.

For the compound `CCN(Cc1cc(Cl)ccc1OCC(C)C)c1ccc(C(=O)NS(=O)(=O)c2c(C)noc2C)nn1` [d), N-(3,5-dimethylisoxazol-4-ylsulphonyl)-6-[N-(5-chloro-2-(2-methylpropoxy)benzyl)-N-ethylamino]pyridazine-3-carboxamide], the “activity in the CCI model” value in assay [1] is “demonstrates activity”.
`NCC1(CC(=O)O)CCCCC1` [gabapentin]: the “activity in the CCI model” value in assay [2] (Eur J Pharmacol, 324, 1997, 157-160) is “demonstrates activity”.
Turning to `O=C(c1ccccc1)c1ccc2n1CCC2C(=O)O` (stereo not drawn) [ketorolac tromethamine], the “activity compared to morphine” value in assay [2] (dosed intrathecally, Can J Anaesth, 1996, 43, 967) is reported as “modest activity”.
